Experimental findings from patent US6326363A, “Methylenebisphosphonic acid derivatives” (Leiras Oy, priority 1997, dated 2001) are described below.

The solubility is the dissolved amount per volume that the medium holds. The term bioavailability denotes the share of a dose that reaches the circulation, judged against a reference dose that is usually intravenous.

A short description of series [1]: Water-solubility in phosphate buffer (50 mM, pH 7.4), HPLC. The class given is physicochemical. As to conditions: for solubility at 2 h: 50 mm phosphate buffer, aqueous buffer. Here is the method: Clodronate and the prodrug molecules of clodronate were analysed with reverse phase/ion pair HPLC method (an isocratic program for clodronate; a gradient program for the simultaneous analysis of clodronate and a prodrug molecule), where detection of compounds was based on the measurement of light scattering caused by unevaporated compounds.
Equipment: Merck LaChrom HPLC (Merck Hitachi Ltd., Japan) Kromasil 100 RP-C8 (250×4.6 i.d., 5 μm) (Higgins Analytical Inc., USA)
Isocratic programe: methanol/ammoniumacetate buffer (3:97, pH 4.6), which contained 2.25% butylamine as ion pair reagent, flow 1.2 ml/min.
Gradient program: methanol (3%→40-60% during 1 min-6 min)/ammoniumacetate (pH 4.6), which contained 2.25% butylamine as ion pair reagent, flow 1.2 ml/min.
Detector: Sedex 55 light scattering detector (Sedere, France)
Settings: temperature of detector 70° C., pressure of evaporating gas (filtered air) 2.2 bar.
Water-solubilities of prodrug molecules were determined in phosphate buffer (50 mM, pH 7.4) at room temperature.
An excess of the compound to be tested was dissolved in about 5 ml of phosphate buffer. The suspension was stirred for 2 hours, the suspension was filtered, and the prodrug concentration of the filtrate was determined with HPLC. Water-solubility of clodronate was determined with the same method.

Series [2] is described as follows: Distribution coefficient octanol/buffer (log P). The class given is physicochemical. As to conditions: 1-octanol/buffer. As for the experimental part: The fat-solubility of the compounds of the test was studied by determining the distribution coefficients (P) of the compounds at pH 7.4 and 2.0. The analysis were carried out in a mixture of octanol and buffer.
When the octanol/buffer method of analysis was used, 1-octanol and the phosphate buffer used (50 mM, pH 7.40, μ=0.15) were saturated with each other by stirring a mixture of these overnight. Phases were separated and a prodrug standard solution with the desired concentration was made in the buffer phase. Appropriate volumes of 1-octanol and the standard solution of phosphate buffer were mixed and the mixture was shaken vigorously for 60 min. After shaking the phases were separated and the concentration of the compound to be studied was analysed from the buffer phase before and after distribution according to the above described HPLC method. Distribution coefficient P was calculated from the following formula: [formula]
C1 =concentration of the compound to be studied before distribution
Ca =concentration of the compound to be studied after distribution
Va =volume of the buffer phase
Vo =volume of the octanol phase

A short description of series [3]: Chemical hydrolysis of prodrug molecules in phosphate buffer at 37° C. The class given is physicochemical. As to conditions: phosphate buffer 50 mM; for half-life: 50 mm phosphate buffer. Here is the method:
Chemical hydrolysis of prodrug molecules was analysed in phosphate buffer (50 mM, μ=0.15) at pH 2.0 and 7.4 and at 37° C.
The compound to be studied was dissolved in 10.0 ml of phosphate buffer. The solution was stirred for 24-1000 h in a water bath with a magnetic stirrer, and samples were taken at regular intervals and analysed with HPLC. From the results a graph of pseudo I order was drawn, where the amount of the remaining compound was shown as a function of time. From the slope (kk) of the linear graph so obtained, a dissociation constant k (k=2.303×-kk) was calculated, wherefrom the half-life T1/2 (T1/2 =0.693/k) of the prodrug molecule under the circumstances in question was calculated.

Series [4] can be described thus: Enzymatic hydrolysis of prodrug molecules in 80% plasma at pH 7.40 and 37° C. Conditions: pH 7.4, 37° C.; for metabolised at 1 min: 1 minute, mean ± SE, n = 3, read-out: clodronate released in the first sample (1 minute). The class given is in vitro ADME. Here is the method:
The enzyme hydrolysis rate of prodrug molecules was determined in a plasma/buffer mixture (80%-20%) at pH 7.40 and at 37° C.
The compound to be tested was dissolved in the buffer part and, after dissolution, plasma with a temperature of 37° C. was added. The solution was stirred with a magnetic stirrer and a sample of 0.25 ml was taken from the mixture at intervals of 1-360 min (depending on the molecule to be tested), to which sample 0.25 ml methanol (denatures proteins) was added. The sample was centrifuged, the clear supernatant was evaporated to dryness, the residue was dissolved in the eluent of the HPLC method, and the remaining prodrug concentration and the amount of the clodronate formed were analysed with HPLC. From the concentrations obtained a first-order graph was drawn (the remaining prodrug amount as a function of time), wherefrom a dissociation constant and half-life (T1/2) were determined.

In series [5] the test system is PTH-induced bone resorption in mouse calvaria. Kind of series: Inhibition of PTH-induced bone resorption in mouse calvaria in vitro. The class given is cell-based. Conditions: 72 h, 100 μmol/l, PTH 10 nM, cultured for three days, read-out: Inhibition of resorption 100 (PTH-x)/PTH. As for the experimental part:
Newborn mice were labeled by a subcutaneous injection of ^45 Ca four days prior to sacrifice. Calvarial bone fragments were microdissected from the parietal bones, preincubated in culture medium with indomethacin, washed and then cultured for three days with and without a bisphosphonate prodrug. Bone resorption was stimulated by parathyroid hormone (PTH, 10 nM), and the effect on this stimulated resorption was measured. As presented in Table 4, an inhibition of resorption by the compounds was shown. The inhibition by the bisphosphonate prodrugs was even higher than with the parent drug.

A short description of series [6]: Absorption and hydrolysis in vivo, oral bioavailability in fasted rats. As to conditions: rat, 100 umol/kg, urine 72 hours, compared with intravenous, parent drug analyzed. As for the experimental part: Absorption and hydrolysis of the compounds in vivo was studied in fasted rats. Absorption was determined from the total amount excreted into urine during 72 hours after administration. For the determination of oral bioavailability excreted amount after oral administration was compared with that after intravenous administration. The urine samples were analyzed for the parent drug with mass-selective or nitrogen phosphorous-detection gas chromatography. The results presented in Table 5 show increased bioavailability of the bisphosphonate prodrugs compared with that of the parent compound.

Where [7] appears, read: phosphate buffer 50 mM, pH 7.4, room temperature.
Where [8] appears, read: pH 2.0, read-out: Log P (pH 2.0).
The mark [9] stands for this setting: 1-octanol/phosphate buffer, pH 7.4, read-out: Log P (pH 7.4).
Where [10] appears, read: μ=0.15, pH 2.0, 37° C., read-out: T1/2 pH 2.0 (converted).
Where [11] appears, read: μ=0.15, pH 7.4, 37° C., read-out: T1/2 pH 7.4 (converted).

Where a name gives a salt, the structure may show the parent alone. Read-outs that look alike come from different tables or passages of the source.

On to `O=C(OP(=O)(O)C(Cl)(Cl)P(=O)(O)OC(=O)c1ccccc1)c1ccccc1` [Benzoe acid dianhydride (Ex. 7), P,P'-Di(benzoyl)(dichloromethylene)bisphosphonate disodium salt], for which, in series [1] (setting [7]), the solubility at 2 h was found to be 6 mg/mL. The logD in series [2] (setting [8]) is -1.5; in series [2] (setting [9]), -2.4. The half-life in series [3] (setting [10]) is 286 h; in series [3] (setting [11]), 235 h. Further, in series [4], the metabolised at 1 min came out at 91.4 ± 8.6%.

`CCCC(=O)OP(=O)(O)C(Cl)(Cl)P(=O)(O)OC(=O)CCC` [Butanoic acid dianhydride (Ex. 7), P,P'-Dibutyroyl(dichloromethylene)bisphosphonate disodium salt] had a solubility at 2 h in series [1] (setting [7]) of 172 mg/mL. In addition, the results for the logD in series [2] (setting [8]) and in series [2] (setting [9]) were -1.9 and -2.4, respectively. Moreover, in series [3] (setting [10]), the half-life is 0.8 h. Moreover, in series [3] (μ=0.15, pH 7.4, 37° C.), the “T1/2 pH 7.4” value is given as 31.3 h. Moreover, in series [4], the metabolised at 1 min was 98 ± 6.9%.

Compound `O=P([O-])([O-])C(Cl)(Cl)P(=O)(O)O.[Na+].[Na+]` [Clodronate, dichloromethylenebisphosphonic acid disodium salt, reference compound] registered a solubility at 2 h in series [1] (setting [7]) of 397 mg/mL. Also, the “Water-solubility (in words)” value in series [1] (reason why the distribution coefficient cannot be determined) is recorded as “extremely water-soluble”. In series [5], the inhibition at 100 µM amounted to 43.2%. Also, in series [6], the bioavailability at 72 h was 2.17%.

In series [1] (setting [7]), `CC(=O)OP(=O)(O)C(Cl)(Cl)P(=O)(O)OC(C)=O` [Compound 1, P,P'-Diacetyl(dichloromethylene)bisphosphonate disodium salt] displayed a solubility at 2 h of 190 mg/mL. Also, the figures for the logD in series [2] (setting [8]) and in series [2] (setting [9]) were -1.4 and -2.2, respectively. Also, the half-life in series [3] (setting [10]) is 0.7 h. Further, the “T1/2 pH 7.4” value in series [3] (μ=0.15, pH 7.4, 37° C.) was 15.2 h. Further, the metabolised at 1 min in series [4] was determined as 102 ± 1.2%. Besides, in series [5], the inhibition at 100 µM is 48.7%.

Take `CC(C)C(=O)OP(=O)(O)C(Cl)(Cl)P(=O)(O)OC(=O)C(C)C` [Compound 2, P,P-di(isobutyroyl)(dichloromethylene)bisphosphonate disodium salt]: the inhibition at 100 µM in series [5] is 64.8%.

`CCCCCCCCCCCCCC(=O)OP(=O)(O)C(Cl)(Cl)P(=O)(O)OC(=O)CCCCCCCCCCCCC` [Compound 3, P,P'-di(tetradecanoyl)(dichoromethylene)bisphosphonate disodium salt]: in series [5], the inhibition at 100 µM came out at 50.5%.

For `CCCCCCCCCCCCCCCCCC(=O)OP(=O)(O)C(Cl)(Cl)P(=O)(O)OC(=O)CCCCCCCCCCCCCCCCC` [Compound 4, P,P'-di(octadecanoyl)(dichloromethylene)bisphosphonate disodium salt], the inhibition at 100 µM in series [5] turned out to be 53.9%.

On to `CC(C)(C)C(=O)OP(=O)(O)C(Cl)(Cl)P(=O)(O)OC(=O)C(C)(C)C` [Pivalyl acid dianhydride (Ex. 7), P,P'-Di(pivaloyl)(dichloromethylene)bisphosphonate disodium salt], for which, in series [1] (phosphate buffer 50 mM, pH 7.4, room temperature, 120 min), the Water-solubility is on record as 23,5 mg/ml. Besides, the logD in series [2] (setting [8]) is -2; in series [2] (setting [9]), -2.3. Besides, in series [3] (setting [11]), the half-life was 790 h. Also, the “T1/2 pH 2.0” value in series [3] (μ=0.15, pH 2.0, 37° C.) is reported as 8.6 h. The “T1/2 Plasma” value in series [4] worked out at 3.3 ± 0.6 h.
